These results are taken from patent publication US20240317736A1, “DEUTERATED DERIVATIVE AS ATX INHIBITOR, AND APPLICATION THEREOF” (Xizang Haisco Pharmaceutical Co., Ltd., priority 2020, published 2024).

Converted amounts (≈) assume the structure as drawn. Like-named read-outs stand apart in the source and are kept apart here. Some results are limits rather than exact numbers.

Series [1] is described as follows: Dynamic solubility test in water and biological vehicles. It is filed as physicochemical. As to conditions: 37° C.; for solubility at 1 h / solubility at 2 h / solubility at 4 h / solubility at 24 h: read-out: S: Solubility; for pH: filtrate; for S: Solubility: LOQ: 0.03 μg/mL. The procedure: The dynamic solubility of the crystal form I of compound A (example 11) in water and three biological vehicles was evaluated. […] The samples at each time point were centrifuged (12000 rpm, 5 min) and filtered (0.45 μm PTFE filter), and the HPLC concentration and pH value of the filtrates were measured.
Preparation of simulated gastric fluid (SGF): 0.1 g of NaCl and 0.05 g of Triton X-100 were weighted to a 50 mL volumetric flask, and purified water was added to obtain a clear solution. 67.5 μL of concentrated hydrochloric acid (12 M) was added, and the pH was adjusted to 1.8 with 1 M hydrochloric acid or a 1 M NaOH solution. Purified water was added to a constant volume.
Preparation of simulated intestinal fluid (FaSSIF) in a fasted state: 0.17 g of anhydrous NaH2PO4, 0.021 g of NaOH and 0.31 g of NaCl were weighed to a 50 mL volumetric flask. About 48 mL of purified water was added to obtain a clear solution, and the pH was adjusted to 6.5 with 1 M hydrochloric acid or a 1 M NaOH solution. Purified water was added to a constant volume, and 0.11 g of SIF powder was weighed to obtain a clear solution.
Preparation of simulated intestinal fluid (FeSSIF) in a feeding state: 0.41 mL of glacial acetic acid, 0.20 g of NaOH and 0.59 g of NaCl were weighed to a 50 mL volumetric flask. About 48 mL of purified water was added to obtain a clear solution, and the pH was adjusted to 5.0 with 1 M hydrochloric acid or a 1 M NaOH solution. Purified water was added to a constant volume, and 0.56 g of SIF powder was weighed to obtain a clear solution.

Series [2] can be described thus: Dynamic vapor sorption (DVS). The class given is physicochemical. As to conditions: 25° C./80% RH. The procedure: A dynamic vapor sorption (DVS) curve is obtained on DVS Intrinsic of Surface Measurement Systems (SMS). The relative humidity at 25° C. is corrected by using the deliquescence points of LiCl, Mg(NO3)2 and KCl.
A free base (9.1 g, 15.3 mmol) of 2-((2-ethyl-6-fluoro-5-(4-(2-(3-hydroxyazetidin-1-yl)-2-oxoethyl)piperazin-1-yl)pyrazolo[1,5-a]pyridin-3-yl)(methyl-d3)amino)-4-(4-fluorophenyl)thiazole-5-carbonitrile (compound A, i.e., compound 3) prepared in example 3 was added to ethanol (50 mL), warmed to 75° C., stirred for 2 h and then dissolved. The mixture was gradually cooled to room temperature under slow stirring, with a large amount of white solids precipitated out, and filtered by suction. The filter cake was washed with ethanol (10 mL), and then dried under vacuum at 40° C. for 24 h to obtain a crystal form I of compound A as a white solid (6.2 g, yield: 68%). […] (initial temperature).

The nature of series [3]: Stability test of crystal form (purity and crystal form change on storage). It is filed as physicochemical. The conditions noted are these: for Crystal form change / Purity: 12 days. The procedure: The crystal form I (example 11) was placed at 25° C./60% RH and 40° C./75% RH for 12 days; and then the sample purity was detected, and the crystal form change was observed.

The conditions of series [4]: phase II clinical trial; cited from earlier work.

As for `[2H]C([2H])([2H])N(c1nc(-c2ccc(F)cc2)c(C#N)s1)c1c(CC)nn2cc(F)c(N3CCN(CC(=O)N4CC(O)C4)CC3)cc12` [Compound A Crystal form I, 2-((2-ethyl-6-fluoro-5-(4-(2-(3-hydroxyazetidin-1-yl)-2-oxoethyl)piperazin-1-yl)pyrazolo[1,5-a]pyridin-3-yl)(methyl-d3)amino)-4-(4-fluorophenyl)thiazole-5-carbonitrile], the solubility at 1 h in series [1] (fasted-state simulated intestinal fluid (FaSSIF), pH 6.5, thermodynamic from solid, vehicle FaSSIF, 1 h) is 320 µg/mL (≈ 537 µM); in series [1] (simulated gastric fluid (SGF), pH 1.8, simulated gastric fluid, thermodynamic from solid, vehicle SGF, 1 h), 15 µg/mL (≈ 25.2 µM); in series [1] (water, thermodynamic from solid, vehicle H2O, 1 h) it was > 5100 µg/mL. Further, the solubility at 2 h was 270 µg/mL (≈ 453 µM) in series [1] (fasted-state simulated intestinal fluid (FaSSIF), pH 6.5, thermodynamic from solid, vehicle FaSSIF, 2 h); 15 µg/mL (≈ 25.2 µM) in series [1] (simulated gastric fluid (SGF), pH 1.8, simulated gastric fluid, thermodynamic from solid, vehicle SGF, 2 h); > 5200 µg/mL in series [1] (water, thermodynamic from solid, vehicle H2O, 2 h). Besides, the solubility at 4 h in series [1] (fasted-state simulated intestinal fluid (FaSSIF), pH 6.5, thermodynamic from solid, vehicle FaSSIF, 4 h) is 360 µg/mL (≈ 604 µM); in series [1] (simulated gastric fluid (SGF), pH 1.8, simulated gastric fluid, thermodynamic from solid, vehicle SGF, 4 h) it was 14 µg/mL (≈ 23.5 µM); in series [1] (water, thermodynamic from solid, vehicle H2O, 4 h), > 5300 µg/mL. Moreover, the solubility at 24 h in series [1] (fasted-state simulated intestinal fluid (FaSSIF), pH 6.5, thermodynamic from solid, vehicle FaSSIF, 24 h) is 210 µg/mL (≈ 353 µM); in series [1] (simulated gastric fluid (SGF), pH 1.8, simulated gastric fluid, thermodynamic from solid, vehicle SGF, 24 h), 14 µg/mL (≈ 23.5 µM); in series [1] (water, thermodynamic from solid, vehicle H2O, 24 h), > 5300 µg/mL. For the same compound, the pH in series [1] (vehicle FaSSIF, 1 h) is 4.9; in series [1] (vehicle FaSSIF, 2 h), 5.0; in series [1] (vehicle FaSSIF, 4 h) it was 4.9; in series [1] (vehicle FaSSIF, 24 h) it was 4.9; in series [1] (vehicle FeSSIF, 1 h), 8.5; in series [1] (vehicle FeSSIF, 2 h), 8.5. The pH in series [1] (vehicle FeSSIF, 4 h) stood at 8.5; in series [1] (vehicle FeSSIF, 24 h), 8.5; in series [1] (vehicle H2O, 1 h), 2.0; in series [1] (vehicle H2O, 2 h), 2.2; in series [1] (vehicle H2O, 4 h), 2.0; in series [1] (vehicle H2O, 24 h), 2.1. Also, the pH amounted to 6.4 in series [1] (vehicle SGF, 1 h); 6.5 in series [1] (vehicle SGF, 2 h); 6.4 in series [1] (vehicle SGF, 4 h); 6.4 in series [1] (vehicle SGF, 24 h). The “S: Solubility” value is recorded as “<LOQ” in series [1] (vehicle FeSSIF, 1 h); “<LOQ” in series [1] (vehicle FeSSIF, 2 h); “<LOQ” in series [1] (vehicle FeSSIF, 4 h); “<LOQ” in series [1] (vehicle FeSSIF, 24 h). Also, the water adsorption in series [2] is 0.20%. Further, the Crystal form change entry in series [3] (25° C./60% RH) and in series [3] (40° C./75% RH) was “No” throughout. Moreover, the Purity in series [3] (25° C./60% RH) was found to be 99.41 area %; in series [3] (40° C./75% RH), 99.44 area %. Also, in series [3] (before storage), the Initial purity was 99.76 area %.
For the compound `CCc1nc2c(C)cc(N3CCN(CC(=O)N4CC(O)C4)CC3)cn2c1N(C)c1nc(-c2ccc(F)cc2)c(C#N)s1` [GLPG-1690], the “Curative effect in IPF” value in series [4] is given as “good curative effect”.

Broadly, the solubility is how much of the substance goes into solution per volume.
